# Reference: publication PMC9841585 (ACS Medicinal Chemistry Letters, 2022)
# Tested on: CHO cells
# Experiment: Biotium XTT cell viability kit
# Type: cell-based, Chinese hamster
# Details: 24 hours, medium with 5% serum
smiles,measurement,value
Cc1nc(N2CCN(C(=O)c3ccco3)CC2)c2c3c(sc2n1)CC(C)(C)CC3 [Compound 24],cytotoxicity (no cytotoxicity up to),> 10 µM
